Here are results for eleven molecules from ChEMBL document CHEMBL3745700, “Functionalised isocoumarins as antifungal compounds: Synthesis and biological studies” (Bioorg Med Chem Lett, 2016).

By MIC is commonly meant the smallest concentration in the dilution series that meets the test's criterion for growth inhibition. Broadly, the IC50 is the concentration that inhibits the measured activity by half. A high value points to weaker potency.

The subject of data set [1] is Candida albicans. The experiment in a line: Stimulation of hyphal formation in Candida albicans ATCC 10231 at MIC70 after 36 hrs by microscopic analysis. The data set is classed as functional, organism-based.
The test system of data set [2] is Candida albicans. The experiment in a line: Antifungal activity against Candida albicans ATCC 10231 by broth microdilution method. The data set is classed as functional. (Dilution methods test growth across graded concentrations, often in twofold steps.)
The subject of a further data set is MRC5. The experiment in a line: Cytotoxicity against human MRC5 cells after 48 hrs by MTT assay. The data set is classed as cell-based. Particulars: MRC5, 48 h.
A short description of data set [3]: Hemolytic activity in Sheep RBC at MIC and IC50 after 1 hr by multiplate reader analysis. The data set is classed as ADME, cell-based, Ovis aries. Particulars: erythrocyte.
The test system of data set [4] is Candida albicans. The data set is described as follows: Binding affinity to Candida albicans ATCC 10231 DNA assessed as degradation at 25 ug/ml after 12 hrs by agarose gel electrophoresis.
The test system of data set [5] is Candida albicans. The data set is described as follows: Antifungal activity against Candida albicans ATCC 10231 assessed as inhibition of hyphal formation at MIC70 after 36 hrs by microscopic analysis. The data set is classed as functional, organism-based.
Data set [6] deals with Candida albicans. The data set is described as follows: Antifungal activity against Candida albicans ATCC 10231 assessed as growth inhibition at 250 ug/disc by disc diffusion method. The data set is classed as functional, organism-based. (In general: In agar diffusion tests the substance spreads into inoculated agar from a disc or well.)
The test system of a further data set is Pichia kudriavzevii. The data set is described as follows: Antifungal activity against azole-resistant Candida krusei ATCC 6258 by broth microdilution method. The data set is classed as functional.
A further data set concerns Candida parapsilosis. The experiment in a line: Antifungal activity against azole-resistant Candida parapsilosis CA-27 clinical isolate by broth microdilution method. Type of data set: functional.
The test system of data set [7] is Candida albicans. The experiment in a line: Antifungal activity against Candida albicans ATCC 10231 assessed as inhibition of biofilm formation at MIC70 after 48 hrs by propidium iodide/Concanavaline A-FITC staining-based fluorescence microscopic analysis. The data set is classed as functional, organism-based.

SMILES strings stand for the structures. Converted amounts (≈) assume the structure as drawn. The source made the active and inactive calls.

For the molecule `O=c1oc(-n2c(C(F)(F)F)nc3ccccc32)cc2ccccc12`, the result with Candida albicans [1] was Active. This molecule came in with an MIC against Candida albicans [2] of 150 µg/mL (≈ 454 µM). In the data set with MRC5, this molecule registered an IC50 of 15 µg/mL (≈ 45.4 µM).

With `O=c1oc(-n2ccnc2)cc2ccccc12`, the MIC against Candida albicans [2] was found to be 62.5 µg/mL (≈ 295 µM). Further, in data set [3], the Activity result is reported as “Non-toxic”. The result in the data set on Candida albicans [4] was inactive. Moreover, in the data set with Candida albicans [5], the inhibition result is “Active”. Besides, the IC50 with MRC5 was determined as 25 µg/mL (≈ 118 µM).

Regarding `O=c1oc(Br)cc2ccccc12`, the MIC was determined as 15.6 µg/mL (≈ 69.3 µM) against Candida albicans [2], 3.9 µg/mL (≈ 17.3 µM) in the data set with Pichia kudriavzevii and 62.5 µg/mL (≈ 278 µM) against Candida parapsilosis (Lodderomyces parapsilosis). The “growth inhibition (GI)” value with Candida albicans [6] was “Active”. The Activity result in data set [3] was “Non-toxic”. For the same molecule, the result in the data set with Candida albicans [4] was inactive. Further, the inhibition entry with Candida albicans [5] is “Active”. Also, the IC50 in the data set on MRC5 worked out at 20 µg/mL (≈ 88.9 µM).

For `C[Si](C)(C)C#Cc1cc2ccccc2c(=O)o1`, the outcome in the data set with Candida albicans [1] was Active. Moreover, the MIC with Candida albicans [2] turned out to be 250 µg/mL (≈ 1030 µM). Further, the “growth inhibition (GI)” value in the data set with Candida albicans [6] is “Active”. Further, in [3], the Activity entry is recorded as “Non-toxic”. Also, the outcome in the data set with Candida albicans [4] was inactive. The molecule further yielded an IC50 in the data set on MRC5 of 30 µg/mL (≈ 124 µM).

As to `C[C@@H](c1ncncc1F)[C@](O)(Cn1cncn1)c1ccc(F)cc1F` [VORICONAZOLE], in the data set on Candida albicans [2], it took 7.8 µg/mL (≈ 22.3 µM) to inhibit growth (MIC). For the same molecule, the inhibition entry in the data set on Candida albicans [5] is “Active”. Besides, the MIC entry with Pichia kudriavzevii and in the data set with Candida parapsilosis was “inactive” throughout. This molecule had an IC50 in the data set with MRC5 of 40 µg/mL (≈ 115 µM).

Take `O=c1oc(-n2cccn2)cc2ccccc12`: the MIC is 31.2 µg/mL (≈ 147 µM) against Candida albicans [2], greater than 500 µg/mL with Pichia kudriavzevii and greater than 500 µg/mL against Candida parapsilosis (Lodderomyces parapsilosis). Further, the Activity entry in data set [3] was “Non-toxic”. Besides, the result with Candida albicans [4] was inactive. For the same molecule, in the data set on Candida albicans [5], the inhibition result was “Active”. The same molecule showed an IC50 in the data set with MRC5 of 30 µg/mL (≈ 141 µM).

For `O=c1oc(-n2cnnn2)cc2ccccc12`, the MIC against Candida albicans [2] worked out at 15.6 µg/mL (≈ 72.8 µM); against Pichia kudriavzevii it was 62.5 µg/mL (≈ 292 µM); against Candida parapsilosis (Lodderomyces parapsilosis), 125 µg/mL (≈ 584 µM). Also, the Activity result in data set [3] was “Non-toxic”. In addition, the outcome in the data set on Candida albicans [4] was inactive. For the same molecule, the inhibition entry in the data set with Candida albicans [5] was “Active”. Also, it took 10 µg/mL (≈ 46.7 µM) to reach half-maximal inhibition in the data set on MRC5 (IC50).

Take `CCOC(=O)c1cn(-c2cc3ccccc3c(=O)o2)cn1`: in the data set with Candida albicans [1], the outcome was Active. Besides, the MIC in the data set on Candida albicans [2] was 62.5 µg/mL (≈ 220 µM); against Pichia kudriavzevii, greater than 500 µg/mL; in the data set with Candida parapsilosis (Lodderomyces parapsilosis) it was greater than 500 µg/mL. Besides, the inhibition entry in the data set with Candida albicans [7] was “Active”. The IC50 in the data set with MRC5 was determined as 25 µg/mL (≈ 87.9 µM).

In the data set with Candida albicans [2], `COC(=O)/C=C/c1cc2ccccc2c(=O)o1` had an MIC of 500 µg/mL (≈ 2170 µM). Moreover, in the data set on Candida albicans [6], the “growth inhibition (GI)” value was “Active”. Besides, the Activity result in [3] was “Non-toxic”. Further, the result in the data set on Candida albicans [4] was inactive. Moreover, in the data set with Candida albicans [5], the inhibition entry was “Active”. In the data set on MRC5, this molecule displayed an IC50 of 30 µg/mL (≈ 130 µM).

For `O=c1oc(-n2cncn2)cc2ccccc12`, the results for the minimum inhibitory concentration (MIC) against Candida albicans [2], in the data set with Pichia kudriavzevii and against Candida parapsilosis (Lodderomyces parapsilosis) were 20 µg/mL (≈ 93.8 µM), 125 µg/mL (≈ 586 µM) and greater than 500 µg/mL, respectively. Moreover, in data set [3], the Activity result is given as “Non-toxic”. Besides, the inhibition entry with Candida albicans [7] and in the data set with Candida albicans [5] was “Active” throughout. Further, the result in the data set on Candida albicans [4] was inactive. The molecule also gave an IC50 in the data set with MRC5 of 40 µg/mL (≈ 188 µM).

As for `O=c1oc(-n2cc(Cl)cn2)cc2ccccc12`, the MIC was 5 µg/mL (≈ 20.3 µM) with Candida albicans [2], 125 µg/mL (≈ 507 µM) against Pichia kudriavzevii and greater than 500 µg/mL in the data set on Candida parapsilosis (Lodderomyces parapsilosis). In addition, the Activity result in [3] is listed as “Non-toxic”. The inhibition result in the data set with Candida albicans [5] was “Active”. For the same molecule, in the data set with MRC5, the IC50 is 15 µg/mL (≈ 60.8 µM).
